# Test results from patent US20260240878A1, “PTP1B/TC-PTP DUAL INHIBITORS AND PROTEIN DEGRADERS” (Purdue Research Foundation, priority 2023, published 2026).
# *1 amine or outer side, *2 acyl side, *3 side chain or, on linkers, in order; H or OH if unused. Where a SMILES comes first, the peptide text is derived from it. [ ]: non-standard residue; d: D form. The star is where a group is joined. NHCH2(1,3-C6H4)CH2CO = O=C(Cc1cccc(CN[*:1])c1)[*:2]; F2Pmp = N[C@@H](Cc1ccc(C(F)(F)P(=O)(O)O)cc1)C(=O)O; Phenylacetyl(4-OH,3-OMe) = COc1cc(CC(=O)*)ccc1O; Benzoyl(3-Br,4-Me) = Cc1ccc(C(=O)*)cc1Br; X1 = Cc1ncsc1-c1ccc([C@H](C)N*)cc1; Hyp = O=C(O)[C@@H]1C[C@@H](O)CN1; Tle = CC(C)(C)[C@H](N)C(=O)O
# What was measured:
# pSTAT1 = assay: STAT1 phosphorylation in IFN-γ stimulated HEK293 cells (western blot); type: cell-based; details: Homo sapiens, HEK293, 16 h, read-out: EC50 of pSTAT1 activation
# Method: Wild-type HEK293 cells were treated with compound 47 or ABBV-CLS-484 for 16 hours, and stimulated with 20 ng/ml IFN-γ to induce JAK-STAT signaling pathway activation.
# Abbvie and Calico developed a potent PTP1B/TC-PTP inhibitor ABBV-CLS-484 (disclosed in International PCT application WO2019246513), and it is currently being evaluated as a treatment for locally advanced or metastatic tumors (NCT04777994).
# [1] = Blood glucose levels study in mice; type: in vivo, mouse
# Method: Blood glucose levels were measured 24 or 48 hours after injection. No starvation applied. NFD=normal fat diet fed mice. […] Mice were treated with 25 or 50 mg/kg of compound 47 daily through i.p. injection. Blood glucose levels were measured several times before injection during the experiment.
# PTP1B and TC-PTP are known to function in concert in regulating both insulin and leptin-mediated cellular processes. The inhibition of PTP1B and TC-PTP was reported to improve insulin sensitivity and glucose homeostasis in diet-induced obese mice. The effect of compound 47 on the glucose levels in mice was evaluated.
# [2] = Pharmacokinetic study in mice (i.p., different formulas); type: in vivo, mouse; details: PBS buffer compared to saline
# Method: Plasma concentrations of compound 47 were measured by LCMS after i.p. injection with different formulas at the indicated time.
# For the PK study, C57BL6 female mice (25-30 g body weight) were injected intraperitoneally with 25 or 50 mg/kg compound 47 dissolved in 0.4 ml saline. Blood samples were collected through the tail vein at indicated time points after injection. Isoflurane was used as an anesthetic. All blood samples were centrifuged at 1,500 g for 5 minutes, and plasma was separated and stored at −80° C. until analysis by a validated method based on reversed-phase liquid chromatography coupled to mass-spectrometric detection (LC/MS) using a reported procedure (Journal of Clinical Investigation, 2018, 128, 816-825), which is hereby specifically incorporated by reference for its teachings regarding same (FIG. 5A).
# Saline was replaced by PBS buffer in the treatment of compound 47 in mice to improve PK properties (FIG. 10). Both Cmax and area under the curve (AUC) were increased compared to the above method with saline.
# PTP1B and TC-PTP = assay: Western blot quantification of PTP1B/TC-PTP and pSTAT1 in multiple cell lines; type: cell-based
# Method: The GAPDH protein was used as the loading control. Compound 47 induces PTP1B and TC-PTP degradation in all tested cell lines with low nanomolar DC50s.
# The GAPDH protein was used as the loading control. […] The changes in pSTAT1 level were positively correlated with TC-PTP/PTP1B degradation among all cell lines.
# Tissues or cultured cells were lysed with ice-cold lysis buffer (50 mM Tris (pH 8.0, 150 mM NaCl, 10% Glycerol, 1% Triton-X-100) supplied with phosphatase inhibitor (Bimake) and protease inhibitor mixture (Roche Applied Science). Equal amounts of protein were resolved by SDS-PAGE, transferred to nitrocellulose membrane, and subjected to immunoblotting. Antibodies used in this study include anti-following proteins: pSTAT1^Tyr701 (Cell Signaling Technology #9167, 1:3000), GAPDH (Cell Signaling Technology #97166, 1:5000), pJAK1^Tyr1034/1035 (Cell Signaling Technology #74129, 1:1000), pJAK2^Tyr1007/1008 (Cell Signaling Technology #3776, 1:1000), TC-PTP (Abcam #ab180764, 1:3000). PTP1B (Abcam #ab244207, 1:1500).
smiles,measurement,setting,value
"COc1cc(CC(=O)N[C@@H](Cc2ccccc2)C(=O)N[C@@H](Cc2ccc(C(F)(F)P(=O)(O)O)cc2)C(=O)N[C@@H](CCCCNC(=O)c2ccc(C)c(Br)c2)C(=O)NCc2cccc(CC(=O)N[C@H](C(=O)N3C[C@H](O)C[C@H]3C(=O)N[C@@H](C)c3ccc(-c4scnc4C)cc3)C(C)(C)C)c2)ccc1O [Compound 47, ((4-((S)-3-(((S)-6-(3-bromo-4-methylbenzamido)-1-((3-(2-(((S)-1-((2S,4R)-4-hydroxy-2-(((S)-1-(4-(4-methylthiazol-5-yl)phenyl)ethyl)carbamoyl)pyrrolidin-1-yl)-3,3-dimethyl-1-oxobutan-2-yl)amino)-2-oxoethyl)benzyl)amino)-1-oxohexan-2-yl)amino)-2-((S)-2-(2-(4-hydroxy-3-methoxyphenyl)acetamido)-3-phenylpropanamido)-3-oxopropyl)phenyl)difluoromethyl)phosphonic Acid] ({Phenylacetyl(4-OH,3-OMe)}-F[F2Pmp]K(Benzoyl(3-Br,4-Me))[NHCH2(1,3-C6H4)CH2CO][Tle][Hyp]-X1)",EC50,pSTAT1,9.1 nM
same,blood glucose level,"[1]; MC38 tumor mouse model, 25 mg/kg daily i.p.",did not lead to significant reduction in the level of blood glucose
same,blood glucose level,"[1]; MC38 tumor mouse model, 50 mg/kg daily i.p.",slightly reduced blood glucose level
same,blood glucose level,"[1]; high-fat diet (HFD) mice, 15 mg/kg",sufficient to reduce blood glucose level in high-fat diet (HFD) mice to that of normal fat diet fed (NFD) mice
same,blood glucose level,"[1]; high-fat diet (HFD) mice, 50 mg/kg",further reduced glucose levels
same,Cmax,[2],increased
same,area under the curve (AUC),[2],increased
same,DC50 of PTP1B and TC-PTP degradation,"PTP1B and TC-PTP; all tested cell lines, 16 hours",low nanomolar
same,pSTAT1 level,"PTP1B and TC-PTP; multiple cell lines, 10 ng/ml IFN-γ 15 mins",enhances pSTAT1 level in all cell lines
